Source: US10450292B2, “Inhibitors of bacterial RNA polymerase: arylpropanoyl, arylpropenoyl, and arylcyclopropanecarboxyl phloroglucinols” (Rutgers, The State University of New Jersey, priority 2015, dated 2019)
Values after ≈ are worked out from the molar mass of the structure shown.

What was measured:
[1] = test system: Staphylococcus aureus ATCC 12600; assay: Inhibition of bacterial growth in culture, spiral gradient endpoint assay (MIC); conditions: Staphylococcus aureus, ATCC12600, 16 h, read-out: MIC S. aureus 12600, Mueller-Hinton II agar, 16 h at 37° C.
[2] = test system: Enterococcus faecalis ATCC 19433; assay: as above; format: cell-based; conditions: Enterococcus faecalis, ATCC 19433 /, 16 h, read-out: MIC E. faecalis, Mueller-Hinton II agar, 16 h at 37° C.
Excerpt: J. Microbiol. Meths. […] Int. J. Exp. Clin. Chemother. […] Adv.

[3] = test system: Escherichia coli D21f2tolC; assay: microbe, parasite or virus in culture; conditions: 16 h, read-out: MIC E. coli D21f2tolC, Mueller-Hinton II agar, 16 h at 37° C.

Row | Compound | MIC [1] [µg/mL] | MIC [2] [µg/mL] | MIC [3] [µg/mL]
1 | CCCC1=C(O)C(CCC)(CCC)C(=O)C(C(=O)C2CC2c2ccc(Oc3ccccc3)cc2)=C1O (stereo not drawn) [Example 59, 3,5-dihydroxy-2-(2-(4-phenoxyphenyl)cyclopropanecarbonyl)-4,6,6-tripropylcyclohexa-2,4-dienone] | 0.7 (≈ 1.43 µM) | 3 (≈ 6.14 µM) | 1.1 (≈ 2.25 µM)
2 | CCCC1(CCC)C(=O)C(C(=O)C2CC2c2ccc(Oc3ccccc3)cc2)=C(O)C=C1O (stereo not drawn) [Example 60, 3,5-dihydroxy-2-(2-(4-phenoxyphenyl)cyclopropanecarbonyl)-6,6-dipropylcyclohexa-2,4-dien-1one] | 10 (≈ 22.4 µM) | > 40 | 3.9 (≈ 8.73 µM)
3 | CCC1=C(O)C(CC)(CC)C(=O)C(C(=O)CCc2ccc(Oc3ccc(F)cc3)cc2)=C1O [Example 61, 4,6,6-triethyl-2-(3-(4-(4-fluorophenoxy)phenyl)propanoyl)-3,5-dihydroxycyclohexa-2,4-dienone] | 0.56 (≈ 1.24 µM) | 0.44 (≈ 0.972 µM) | 0.24 (≈ 0.53 µM)
4 | CCC1=C(O)C(CC)(CC)C(=O)C(C(=O)C2CC2c2ccc(Oc3ccc(F)cc3)cc2)=C1O (stereo not drawn) [Example 62, 4,6,6-triethyl-2-(2-(4-(4-fluorophenoxy)phenyl)cyclopropanecarbonyl)-3,5-dihydroxycyclohexa-2,4-dienone] | 0.4 (≈ 0.861 µM) | 0.51 (≈ 1.1 µM) | 0.28 (≈ 0.603 µM)
5 | CCCC1(CCC)C(=O)C(C(=O)CCc2ccc(Oc3ccc(F)cc3)cc2)=C(O)C=C1O [Example 63, 2-(3-(4-(4-fluorophenoxy)phenyl)propanoyl)-3,5-dihydroxy-6,6-dipropylcyclohexa-2,4-dienone] | 5.1 (≈ 11.3 µM) | > 40 | 2.4 (≈ 5.3 µM)
6 | CCCC1=C(O)C(CCC)(CCC)C(=O)C(C(=O)CCc2ccc(Oc3ccc(F)cc3)cc2)=C1O [Example 64, 2-(3-(4-(4-fluorophenoxy)phenyl)propanoyl)-3,5-dihydroxy-4,6,6-tripropylcyclohexa-2,4-dienone] | 0.26 (≈ 0.526 µM) | 0.34 (≈ 0.687 µM) | 0.34 (≈ 0.687 µM)
7 | CCCC1(CCC)C(=O)C(C(=O)C2CC2c2ccc(Oc3ccc(F)cc3)cc2)=C(O)C=C1O (stereo not drawn) [Example 65, 2-(2-(4-(4-fluorophenoxy)phenyl)cyclopropanecarbonyl)-3,5-dihydroxy-6,6-dipropylcyclohexa-2,4-dienone] | 1.9 (≈ 4.09 µM) | 1.9 (≈ 4.09 µM) | > 40
8 | CCCC1=C(O)C(CCC)(CCC)C(=O)C(C(=O)C2CC2c2ccc(Oc3ccc(F)cc3)cc2)=C1O (stereo not drawn) [Example 66, 2-(2-(4-(4-fluorophenoxy)phenyl)cyclopropanecarbonyl)-3,5-dihydroxy-4,6,6-tripropylcyclohexa-2,4-dienone] | 0.16 (≈ 0.316 µM) | 0.55 (≈ 1.09 µM) | 0.72 (≈ 1.42 µM)
9 | CCCC1=C(O)C(CCC)(CCC)C(=O)C(C(=O)CCc2ccc(Oc3ccc(F)cc3)cc2C(F)(F)F)=C1O [Example 68, 2-(3-(4-(4-fluorophenoxy)-2-(trifluoromethyl)phenyl)propanoyl)-3,5-dihydroxy-4,6,6-tripropylcyclohexa-2,4-dienone] | 0.6 (≈ 1.07 µM) | 1.3 (≈ 2.31 µM) | 1.5 (≈ 2.67 µM)
10 | CCCC1=C(O)C(CCC)(CCC)C(=O)C(C(=O)CCc2ccc(Oc3ccc(F)cc3)cc2C)=C1O [Example 69, 2-(3-(4-(4-fluorophenoxy)-2-methylphenyl)propanoyl)-3,5-dihydroxy-4,6,6-tripropylcyclohexa-2,4-dienone] | 1.1 (≈ 2.16 µM) | 1.4 (≈ 2.75 µM) | 1.1 (≈ 2.16 µM)
11 | CCCC1=C(O)C(CCC)(CCC)C(=O)C(C(=O)C2CC2c2ccc(Oc3ccc(F)cc3)cc2C(F)(F)F)=C1O (stereo not drawn) [Example 70, 2-(2-(4-(4-fluorophenoxy)-2-(trifluoromethyl)phenyl)cyclopropanecarbonyl)-3,5-dihydroxy-4,6,6-tripropylcyclohexa-2,4-dienone] | 1.5 (≈ 2.61 µM) | 1.2 (≈ 2.09 µM) | 8.2 (≈ 14.3 µM)
12 | CCCC1=C(O)C(CCC)(CCC)C(=O)C(C(=O)C2CC2c2ccc(Oc3ccc(F)cc3)cc2C)=C1O (stereo not drawn) [Example 71, 2-(2-(4-(4-fluorophenoxy)-2-methylphenyl)cyclopropanecarbonyl)-3,5-dihydroxy-4,6,6-tripropylcyclohexa-2,4-dienone] | 0.9 (≈ 1.73 µM) | 2.1 (≈ 4.03 µM) | 2.3 (≈ 4.42 µM)
13 | CCC1=C(O)C(CC)(CC)C(=O)C(C(=O)C2CC2c2ccc(Oc3ccc(F)cc3)cc2C(F)(F)F)=C1O (stereo not drawn) [Example 72, 4,6,6-triethyl-2-(2-(4-(4-fluorophenoxy)-2-(trifluoromethyl)phenyl)cyclopropanecarbonyl)-3,5-dihydroxycyclohexa-2,4-dienone] | 6.5 (≈ 12.2 µM) | > 40 | 1.6 (≈ 3 µM)
14 | CCC1=C(O)C(CC)(CC)C(=O)C(C(=O)CCc2ccc(Oc3ccc(F)cc3)cc2C(F)(F)F)=C1O [Example 73, 4,6,6-triethyl-2-(3-(4-(4-fluorophenoxy)-2-(trifluoromethyl)phenyl)propanoyl)-3,5-dihydroxycyclohexa-2,4-dienone] | 1.5 (≈ 2.88 µM) | 1.6 (≈ 3.07 µM) | 1.2 (≈ 2.31 µM)
15 | CCC1=C(O)C(CC)(CC)C(=O)C(C(=O)CCc2ccc(Oc3ccc(F)cc3)cc2C)=C1O [Example 74, 4,6,6-triethyl-2-(3-(4-(4-fluorophenoxy)-2-methylphenyl)propanoyl)-3,5-dihydroxycyclohexa-2,4-dienone] | 1.7 (≈ 3.64 µM) | 11 (≈ 23.6 µM) | 0.9 (≈ 1.93 µM)
16 | CC1=C(O)C(C)(C)C(=O)C(C(=O)C2CC2c2ccc(Oc3ccc(F)cc3)cc2C)=C1O (stereo not drawn) [Example 75, 2-(2-(4-(4-fluorophenoxy)-2-methylphenyl)cyclopropanecarbonyl)-3,5-dihydroxy-4,6,6-trimethylcyclohexa-2,4-dienone] | 17 (≈ 38.9 µM) | > 40 | 5.1 (≈ 11.7 µM)
17 | CC1=C(O)C(C)(C)C(=O)C(C(=O)C2CC2c2ccc(Cl)cc2C(F)(F)F)=C1O (stereo not drawn) [Example 76, 2-(2-(4-chloro-2-(trifluoromethyl)phenyl)cyclopropanecarbonyl)-3,5-dihydroxy-4,6,6-trimethylcyclohexa-2,4-dienone] | 12 (≈ 28.9 µM) | > 40 | 3.1 (≈ 7.47 µM)
18 | CC1=C(O)C(C)(C)C(=O)C(C(=O)C2CC2c2ccc(Cl)cc2C)=C1O (stereo not drawn) [Example 77, 2-(2-(4-chloro-2-methylphenyl)cyclopropanecarbonyl)-3,5-dihydroxy-4,6,6-trimethylcyclohexa-2,4-dienone] | > 40 | > 40 | 7.4 (≈ 20.5 µM)
19 | CC1=C(O)C(C)(C)C(=O)C(C(=O)CCc2ccc(Oc3ccc(F)cc3)cc2)=C1O [Example 78, 2-(3-(4-(4-fluorophenoxy)phenyl)propanoyl)-3,5-dihydroxy-4,6,6-trimethylcyclohexa-2,4-dienone] | > 40 | > 40 | 6.5 (≈ 15.8 µM)
20 | CCCC1=C(O)C(CCC)(CCC)C(=O)C(C(=O)C2CC2c2ccc(Cl)cc2)=C1O (stereo not drawn) [Example 79, 2-(2-(4-chlorophenyl)cyclopropanecarbonyl)-3,5-dihydroxy-4,6,6-tripropylcyclohexa-2,4-dienone] | 0.27 (≈ 0.626 µM) | 0.61 (≈ 1.42 µM) | 0.15 (≈ 0.348 µM)
21 | CCCC1=C(O)C(CCC)(CCC)C(=O)C(C(=O)C2CC2c2ccc(Cl)cc2C(F)(F)F)=C1O (stereo not drawn) [Example 80, 2-(2-(4-chloro-2-(trifluoromethyl)phenyl)cyclopropanecarbonyl)-3,5-dihydroxy-4,6,6-tripropylcyclohexa-2,4-dienone] | 0.14 (≈ 0.281 µM) | 0.42 (≈ 0.842 µM) | 0.33 (≈ 0.661 µM)
